Experiments:
[1] = Mannitol particle size, initially and after mixing with VP10 hydrogel solution; assay type: physicochemical
Excerpt: All chemicals were purchased from Sigma-Aldrich unless otherwise stated. N-isopropylacrylamide (NIPAAm) was purified by recrystallization from hexane and vacuum-dried. 2-Hydroxyethyl methacrylate (HEMA) was purified by vacuum distillation. Vinylpyrrolidone (VP), lactide, benzoyl peroxide (BPO), sodium methoxide (NaOCH3), methacryloyl chloride, methacrylic acid (MAA) and other solvents were used as received. D-mannitol particles were sieved to obtain the portion between 170 and 230 meshes.

[2] = tested on: SMCs; assay: Cytotoxicity and proliferation of SMCs (mitochondrial activity assay); assay type: cell-based; conditions: dissolved mannitol

particle size change after mixing with hydrogel solution ([1]; mixed with VP10 hydrogel solution for 10 min): did not decrease significantly | initial size of sieved mannitol particles ([1]; sieved, 170-230 mesh): 68.0 μm
Compound: OC[C@@H](O)[C@@H](O)[C@H](O)[C@H](O)CO [mannitol, D-mannitol]
concentration up to which no cytotoxicity was shown [2]: up to 100 mM

— patent US11389569B2, “Biodegradable, porous, thermally responsive injectable hydrogel as soft tissue defect filler” (University of Pittsburgh—Of the Commonwealth System of …, priority 2017, dated 2022)
